Reference: patent US9796733B2, “Imidazo-pyrazine derivatives useful as soluble guanylate cyclase activators” (Merck Sharp & Dohme Corp., priority 2014, dated 2017)

Experiments:
[1] = test system: Spontaneously hypertensive rats (SHR); test: Acute efficacy in spontaneously hypertensive rats (SHR): telemetry blood pressure lowering after a single oral dose; assay type: in vivo, rat
Procedure, shortened: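 Values are the maximum peak fall in systolic pressure after one oral dose (mpk), computed hourly against baseline from a vehicle dose given the day before. Rats were conscious, male, spontaneously hypertensive, with femoral-aortic telemetry recording 30 s every 10 min, 14 days post-surgery.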

[2] = biological target: T1, sGC α1/β1 heterodimer (Homo sapiens, UniProt Q02108+Q02153); test: Cell-based sGC functional assay (CASA assay): cGMP generation in CHO-K1/sGC cells, HTRF detection; details: for Emax: CHO-K1, percent activation relative to standard Compound A in CHO-K1/sGC cells, read-out: % Act.; for EC50: inflection point (IP) of cGMP generation in CHO-K1/sGC cells, 4P fit, activity expressed as percentage of Compound A
T1 construct: expressed in transfected cells; host or cells: CHO-K1 (clone #7, CHO-K1/sGC)
T1 sequence (Q02108 1-690): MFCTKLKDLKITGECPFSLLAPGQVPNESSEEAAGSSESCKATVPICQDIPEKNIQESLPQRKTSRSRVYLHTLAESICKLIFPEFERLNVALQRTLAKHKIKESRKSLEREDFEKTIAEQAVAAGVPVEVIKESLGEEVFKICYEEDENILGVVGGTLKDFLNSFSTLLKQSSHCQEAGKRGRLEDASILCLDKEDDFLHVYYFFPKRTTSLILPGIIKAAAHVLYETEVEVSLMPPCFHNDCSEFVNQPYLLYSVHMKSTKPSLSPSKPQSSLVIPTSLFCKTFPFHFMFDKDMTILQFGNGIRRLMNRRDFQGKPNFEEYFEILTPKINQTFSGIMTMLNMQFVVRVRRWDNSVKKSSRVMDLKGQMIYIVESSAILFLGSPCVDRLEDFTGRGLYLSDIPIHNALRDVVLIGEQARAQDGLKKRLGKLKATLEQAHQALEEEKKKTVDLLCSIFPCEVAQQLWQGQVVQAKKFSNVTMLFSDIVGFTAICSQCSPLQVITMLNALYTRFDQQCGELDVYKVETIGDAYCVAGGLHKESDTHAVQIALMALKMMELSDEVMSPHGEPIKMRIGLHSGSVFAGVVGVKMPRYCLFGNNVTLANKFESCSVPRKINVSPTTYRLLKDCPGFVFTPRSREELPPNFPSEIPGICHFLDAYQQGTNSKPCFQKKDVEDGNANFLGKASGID
T1 sequence (Q02153 1-619): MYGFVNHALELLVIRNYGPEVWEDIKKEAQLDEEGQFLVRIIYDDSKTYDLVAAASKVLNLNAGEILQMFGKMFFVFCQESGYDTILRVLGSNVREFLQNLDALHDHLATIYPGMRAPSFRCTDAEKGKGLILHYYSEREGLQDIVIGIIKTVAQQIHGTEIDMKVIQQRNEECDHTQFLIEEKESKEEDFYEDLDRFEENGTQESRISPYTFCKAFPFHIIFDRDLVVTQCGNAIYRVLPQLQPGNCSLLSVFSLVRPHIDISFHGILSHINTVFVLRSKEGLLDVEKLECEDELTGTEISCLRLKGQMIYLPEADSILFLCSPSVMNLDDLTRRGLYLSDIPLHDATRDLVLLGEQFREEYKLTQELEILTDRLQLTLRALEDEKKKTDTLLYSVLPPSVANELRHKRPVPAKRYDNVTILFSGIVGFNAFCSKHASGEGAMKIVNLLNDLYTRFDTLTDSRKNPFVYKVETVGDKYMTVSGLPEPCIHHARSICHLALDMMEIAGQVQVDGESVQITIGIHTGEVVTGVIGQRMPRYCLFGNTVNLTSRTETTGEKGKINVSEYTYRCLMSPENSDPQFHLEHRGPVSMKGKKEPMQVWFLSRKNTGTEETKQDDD
Procedure, shortened: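 cGMP was quantified by HTRF after 1 hr, 37° C exposure of thawed CHO-K1 cells expressing sGC α1/β1 to compound, with or without 1 μM DETA-NO. IBMX (0.5 mM) blocked cGMP breakdown, and DMSO was 2.5% final. Percent of standard Compound A's maximal cGMP was fitted (4P) for inflection point.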

Compound	Maximum peak decrease of systolic blood pressure (SBP) in SHR, Cat. ([1]; P.O. 0.3 mpk)	Emax [2] [%]	EC50 [2] [nM]	Maximum peak decrease of systolic blood pressure (SBP) in SHR, Cat. ([1]; P.O. 1.0 mpk)	Maximum peak decrease of systolic blood pressure (SBP) in SHR, Cat. ([1]; P.O. 3.0 mpk)
CCCCc1nc(-c2nc(N)c3c(n2)NC(=O)C3(c2ccc(Cl)c(F)c2)C2CC2)cn2ccnc12 (stereo not drawn) [Example 329A, 4-amino-2-(8-butylimidazo[1,2-a]pyrazin-6-yl)-5-(4-chloro-3-fluorophenyl)-5-cyclopropyl-5H-pyrrolo[2,3-d]pyrimidin-6(7H)-one]	B (Category B=SBP in SHRs 20-40 mmHg)	93	16		
CCCCc1nc(-c2nc(N)c3c(n2)NC(=O)C3(C)c2ccc(Cl)cn2)cn2cc(C)nc12 (stereo not drawn) [Example 168A, 4-amino-2-(8-butyl-2-methylimidazo[1,2-a]pyrazin-6-yl)-5-(5-chloropyridin-2-yl)-5-methyl-5H-pyrrolo[2,3-d]pyrimidin-6(7H)-one]		97	150	B (Category B=SBP in SHRs 20-40 mmHg)	
CC1(c2ccc(OC(F)(F)F)cc2)C(=O)Nc2nc(-c3cn4ccnc4c(CCC(F)(F)C(F)(F)F)n3)nc(N)c21 (stereo not drawn) [Example 234B, 4-amino-5-methyl-2-(8-(3,3,4,4,4-pentafluorobutyl)imidazo [1,2-a]pyrazin-6-yl)-5-(4-(trifluoromethoxy)phenyl)-5H-pyrrolo[2,3-d]pyrimidin-6(7H)-one]	A (Category A=SBP in SHRs<20 mmHg)	105	27		
CC1(c2nnc(C3CC3)s2)C(=O)Nc2nc(-c3cn4ccnc4c(CCC(F)(F)C(F)(F)F)n3)nc(N)c21 (stereo not drawn) [Example 59A, 4-amino-5-(5-cyclopropyl-1,3,4-thiadiazol-2-yl)-5-methyl-2-(8-(3,3,4,4,4-pentafluorobutyl)imidazo[1,2-a]pyrazin-6-yl)-5H-pyrrolo[2,3-d]pyrimidin-6(7H)-one]		97	67	A (Category A=SBP in SHRs<20 mmHg)	
Cc1nnc(C2(C)C(=O)Nc3nc(-c4cn5ccnc5c(Cc5ccc(F)cc5)n4)nc(N)c32)s1 (stereo not drawn) [Example 33A, 4-amino-2-(8-(4-fluorobenzyl)imidazo[1,2-a]pyrazin-6-yl)-5-methyl-5-(5-methyl-1,3,4-thiadiazol-2-yl)-5H-pyrrolo[2,3-d]pyrimidin-6(7H)-one]		135	129	B (Category B=SBP in SHRs 20-40 mmHg)	
Cc1ccc(C2(C)C(=O)Nc3nc(-c4cn5ccnc5c(CCC(F)(F)C(F)(F)F)n4)nc(N)c32)cn1 (stereo not drawn) [Example 221A, 4-amino-5-methyl-5-(6-methylpyridin-3-yl)-2-(8-(3,3,4,4,4-pentafluorobutyl)imidazo [1,2-a]pyrazin-6-yl)-5H-pyrrolo[2,3-d]pyrimidin-6(7H)-one]		107	496	A (Category A=SBP in SHRs<20 mmHg)	
CC1(c2ccc(Cl)cn2)C(=O)Nc2nc(-c3cn4ccnc4c(CCCC(F)(F)F)n3)nc(N)c21 (stereo not drawn) [Example 208A, 4-amino-5-(5-chloropyridin-2-yl)-5-methyl-2-(8-(4,4,4-trifluorobutyl)imidazo[1,2-a]pyrazin-6-yl)-5H-pyrrolo[2,3-d]pyrimidin-6(7H)-one]	C (Category C=SBP in SHRs>40 mmHg)	88	36		
Nc1nc(-c2cn3ccnc3c(CCCC(F)(F)F)n2)nc2c1C(c1ccc(Cl)cc1F)(C1CC1)C(=O)N2 (stereo not drawn) [Example 339A, 4-amino-5-(4-chloro-2-fluorophenyl)-5-cyclopropyl-2-(8-(4,4,4-trifluorobutyl)imidazo[1,2-a]pyrazin-6-yl)-5H-pyrrolo[2,3-d]pyrimidin-6(7H)-one]	B (Category B=SBP in SHRs 20-40 mmHg)	325	122		
CC1(c2cccc(F)c2)C(=O)Nc2nc(-c3cn4ccnc4c(CCC(F)(F)C(F)(F)F)n3)nc(N)c21 (stereo not drawn) [Example 231A, 4-amino-5-(3-fluorophenyl)-5-methyl-2-(8-(3,3,4,4,4-pentafluorobutyl)imidazo [1,2-a]pyrazin-6-yl)-5H-pyrrolo[2,3-d]pyrimidin-6(7H)-one]	A (Category A=SBP in SHRs<20 mmHg)	156	50		
Nc1nc(-c2cn3ccnc3c(CCCC(F)(F)F)n2)nc2c1C(c1ccc(F)cc1)(C1CC1)C(=O)N2 (stereo not drawn) [Example 205B, 4-amino-5-cyclopropyl-5-(4-fluorophenyl)-2-(8-(4,4,4-trifluorobutyl)imidazo[1,2-a]pyrazin-6-yl)-5H-pyrrolo[2,3-d]pyrimidin-6(7H)-one]	C (Category C=SBP in SHRs>40 mmHg)	127	20		
CC1(c2ccc(Cl)cc2)C(=O)Nc2nc(-c3cn4ccnc4c(CC4CCC4)n3)nc(N)c21 (stereo not drawn) [Example 118A, 4-amino-5-(4-chlorophenyl)-2-(8-(cyclobutylmethyl)imidazo [1,2-a]pyrazin-6-yl)-5-methyl-5H-pyrrolo[2,3-d]pyrimidin-6(7H)-one]	C (Category C=SBP in SHRs>40 mmHg)	76	33		
Nc1nc(-c2cn3ccnc3c(CCCC(F)(F)F)n2)nc2c1C(c1cc(C(F)(F)F)ccn1)(C1CC1)C(=O)N2 (single isomer, unassigned) [Example 354B, 4-amino-5-cyclopropyl-2-(8-(4,4,4-trifluorobutyl)imidazo[1,2-a]pyrazin-6-yl)-5-(4-(trifluoromethyl)pyridin-2-yl)-5H-pyrrolo[2,3-d]pyrimidin-6(7H)-one]		137	170	A (Category A=SBP in SHRs<20 mmHg)	
CC1(c2ccc(OC(F)(F)F)cc2)C(=O)Nc2nc(-c3cn4ccnc4c(CCCC(F)(F)F)n3)nc(N)c21 (stereo not drawn) [Example 207B, 4-amino-5-methyl-2-(8-(4,4,4-trifluorobutyl)imidazo[1,2-a]pyrazin-6-yl)-5-(4-(trifluoromethoxy)phenyl)-5H-pyrrolo[2,3-d]pyrimidin-6(7H)-one]	B (Category B=SBP in SHRs 20-40 mmHg)	121	44		
Nc1nc(-c2cn3ccnc3c(CCC(F)(F)F)n2)nc2c1C(c1ccc(F)cc1)(C1CC1)C(=O)N2 (stereo not drawn) [Example 194B, 4-amino-5-cyclopropyl-5-(4-fluorophenyl)-2-(8-(3,3,3-trifluoropropyl)imidazo[1,2-a]pyrazin-6-yl)-5H-pyrrolo[2,3-d]pyrimidin-6(7H)-one]		116	268		C (Category C=SBP in SHRs>40 mmHg)
Nc1nc(-c2cn3ccnc3c(CCCC(F)(F)F)n2)nc2c1C(c1ccc(Cl)cc1)(C1CC1)C(=O)N2 (stereo not drawn) [Example 316B, 4-amino-5-(4-chlorophenyl)-5-cyclopropyl-2-(8-(4,4,4-trifluorobutyl)imidazo[1,2-a]pyrazin-6-yl)-5H-pyrrolo[2,3-d]pyrimidin-6(7H)-one]	B (Category B=SBP in SHRs 20-40 mmHg)	156	29		
CC1(c2ccc(F)cn2)C(=O)Nc2nc(-c3cn4ccnc4c(CC4CCC4)n3)nc(N)c21 (stereo not drawn) [Example 115B, 4-amino-2-(8-(cyclobutylmethyl)imidazo [1,2-a]pyrazin-6-yl)-5-(5-fluoropyridin-2-yl)-5-methyl-5H-pyrrolo[2,3-d]pyrimidin-6(7H)-one]	C (Category C=SBP in SHRs>40 mmHg)	111	14		
